Measured values from patent US11047861B2, “Cellular assays with a molecular endpoint measured by SAMDI mass spectrometry” (NORTHWESTERN UNIVERSITY, priority 2015, dated 2021).

Experiments:
[1] = test system: protein tyrosine phosphatase (PTP); test: TCAL-SAMDI assay of PTP activity, inhibitors applied to cells cultured on the monolayer; format: cell-based
Description: HeLa cells and MDA-MB-231 cells were obtained from ATCC and cultured in αMEM (for HeLa cells) or high-glucose DMEM (for MDA-MB-231 cells) medium supplemented with 10% fetal bovine serum, glutamax, penicillin and streptomycin. All cells were cultured in a humidified incubator at 37° C. and CO2. Cells were trypsinized and suspended in media, and the average number of cells per μL was counted using a hemocytometer and Countess automated cell counter (Life Technologies), and cell concentrations were adjusted to seed the desired number of cells per spot in 3 μL media. Cells were cultured on the monolayers presenting RGD and peptide substrates on steel plates or glass slides for two hours under standard growth conditions. For PTP activity assays, cells were cultured for two hours before addition of inhibitors, if any. […] A 30 mg/mL solution of 2,4,6-trihydroxyacetophenone in acetone was delivered to each spot on the array and the surfaces were analyzed using an AB Sciex 5800 MALDI TOF/TOF instrument in positive reflector mode. The area under the curves for the [M+H]^+ peaks of disulfides was measured with the Data Explorer software (AB Sciex). […]
MDA-MB-231 cells were seeded at 75 cells per spot on monolayers presenting phosphatase peptide substrates and cyclic RGD as described above. […] IC50 values and curves were determined using GraphPad prism software.

[2] = test system: protein tyrosine phosphatase (PTP); test: SAMDI assay of PTP activity in cell lysate treated with inhibitor and applied to the monolayer; format: biochemical; settings: treatment of MDA-MB-231 cell lysate (rather than cells), read-out: PTP inhibition, IC50
Description: MDA-MB-231 cells were lysed using the lysis buffer containing protease inhibitor described above to achieve the equivalent of 75 cells per 1.5 μL, after mixing with inhibitor solutions. Inhibitor solutions in lysis buffer at concentrations ranging from 0 to 640 μM were added to the lysate and 1.5 μL of the mixture was spotted on monolayers presenting cyclic RGD and phosphatase substrate. The reaction was carried out for 1 hour at 37° C. in a humidified chamber. To evaluate dose-response inhibition under standard culture conditions, MDA-MB-231 cells were plated on a 96-well plate at a density of 6,400 cells per well and cultured for two hours. Culture medium containing inhibitors at final concentrations ranging from 0 to 300 μM and 1% DMSO were delivered to each well and culture proceeded for another two hours. The mixture containing media and inhibitor was removed from each well and centrifuged. Lysis buffer containing protease inhibitor was applied to each well in the plate and incubated for 10 minutes at room temperature. The lysate was collected and added to the corresponding cell pellet for each inhibitor concentration sample. […] Protein concentrations were measured using a BCA assay (Santa Cruz Biotechnology), following manufacturer instructions. […] IC50 values and curves were determined using GraphPad prism software.

Row | Compound | IC50 ([1]; treatment of cultured MDA-MB-231 cells on monolayer for two hours, then lysis in place, read-out: inhibition of PTP activity, IC50) [µM] | IC50 [2] [µM] | PTP inhibition ([1]; treatment of cells, inhibitor concentration up to 160 μM)
1 | O=C(CBr)c1ccc(O)cc1 [PTPI-I] | 14 | 83 | –
2 | O=C1C(=NNc2ccc(S(=O)(=O)O)cc2)C(c2ccc([N+](=O)[O-])cc2)=NN1c1ccccc1 [PHPS1] | – | 75 | did not show PTP inhibition
